Data published in US20140357713A1, “ANTIMICROBIAL COMPOUNDS AND METHODS OF USE” (NexMed Holdings, Inc., priority 2012, published 2014).
Structures can show the parent of a compound that is named as a salt. Where two headings read alike, the source gives them in different places.

Columns and labels:
pH (Table 1) = assay type: physicochemical
[1] = tested on: Staphulococcus aureus (ATCC 29213); experiment: Minimum inhibitory concentration (MIC) assay, Example 33; assay type: cell-based, Staphylococcus aureus; conditions: Staphylococcus aureus
Method in brief: (§1)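 Broth microdilution per CLSI guidelines in CAMHB, with 2-fold serial compound dilutions. Inoculum was set to a 0.5 McFarland standard, diluted 1:100 to twice the test density, then mixed 1:2 with drug. Plates were incubated at 35° C and the MIC read per CLSI.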

[2] = tested on: Escherichia coli (ATCC 25922); experiment: as above; assay type: cell-based; conditions: for MIC: Escherichia coli
Method in brief: as §1

[3] = tested on: Pseudomonas aeruginosa (ATCC 27853); experiment: as above; assay type: cell-based; conditions: Pseudomonas aeruginosa
Method in brief: as §1

[4] = tested on: Escherichia coli (ATCC 25922); experiment: Time kill study, Example 33 (0 to 5 min); assay type: cell-based; conditions: 1×MIC
Method in brief: (§2)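 Per CLSI guidelines, strain suspensions were mixed 1:1 by volume with compound solution; samples taken at 0 min, 30 sec, 1 min and 5 min were diluted and plated on agar. Colonies were counted after 24 to 48 hrs incubation and viable counts reported as Log10 CFU/mL.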

[5] = tested on: Pseudomonas aeruginosa (ATCC 27853); experiment: Time kill study, Example 33 (0 to 5 min); assay type: cell-based; conditions: 1×MIC
Method in brief: as §2

[6] = tested on: Candida albicans (ATCC 90029); experiment: Minimum inhibitory concentration (MIC) assay, Example 33; assay type: cell-based; conditions: Candida albicans
Method in brief: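 Broth microdilution per CLSI guidelines in RPMI 1640; inoculum set to OD530 0.08–0.13, diluted 1:50 then 1:20 to 2× strength and mixed 1:2 with 2-fold serial compound dilutions. Incubated at 35° C; MIC read per CLSI.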

[7] = tested on: Aspergillus niger (CMCC 98003); experiment: as above; assay type: cell-based; conditions: Aspergillus niger
Method in brief: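 Broth microdilution MIC per CLSI guidelines in RPMI 1640 with serial 2-fold compound dilutions. Spore suspension from sporulating colonies adjusted to OD530 0.09-0.13, diluted 1:50 as 2× inoculum and added 1:2 to drug wells; plates incubated at 35 °C and MIC read per CLSI.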

[8] = Solubility (Sol., Table 1); assay type: physicochemical
[9] = tested on: Staphylococcus aureus (ATCC 29213); experiment: Time kill study, Example 33 (0 to 5 min); assay type: cell-based; conditions: 1×MIC
Method in brief: as §2

[10] = tested on: Candida albicans (ATCC 90029); experiment: Time kill study, Example 33 (0 to 5 min); assay type: cell-based; conditions: 1×MIC
Method in brief: as §2

[11] = 1 min, listed as Nex-88, hydrochloride
[12] = CMCC98003, Table 19 summary, read-out: MIC
[13] = CMCC98003, n = 1, read-out: MIC Aspergillus niger
[14] = CMCC98003, n = 2, read-out: MIC Aspergillus niger
[15] = ATCC29213, Table 19 summary, read-out: MIC
[16] = ATCC29213, n = 1, read-out: MIC S. aureus
[17] = ATCC29213, n = 2, read-out: MIC S. aureus
[18] = ATCC25922, n = 1, read-out: MIC E. coli
[19] = ATCC25922, n = 2, read-out: MIC E. coli
[20] = ATCC27853, Table 19 summary, read-out: MIC
[21] = ATCC27853, n = 1, read-out: MIC P. aeruginosa
[22] = ATCC27853, n = 2, read-out: MIC P. aeruginosa
[23] = ATCC90029, Table 19 summary, read-out: MIC
[24] = ATCC90029, n = 1, read-out: MIC Candida albicans
[25] = ATCC90029, n = 2, read-out: MIC Candida albicans
[26] = ATCC25922, Table 19 summary of Example 33 and Example 35, read-out: MIC

MIC [7, 12] [µg/mL] | MIC [7, 13] [µg/mL] | MIC [7, 14] [µg/mL] | pH (pH (Table 1)) | MIC [1, 15] [µg/mL] | MIC [1, 16] [µg/mL] | MIC [1, 17] [µg/mL] | Sol. [8] [%] | MIC [2, 18] [µg/mL] | MIC [2, 19] [µg/mL] | MIC [3, 20] [µg/mL] | MIC [3, 21] [µg/mL] | MIC [3, 22] [µg/mL] | SMILES | Viable counts, Pseudomonas aeruginosa time kill study ([5]; 5 min) [Log10 CFU/mL] | Viable counts, Staphylococcus aureus time kill study ([9]; 0.5 min) [Log10 CFU/mL] | Viable counts, Staphylococcus aureus time kill study ([9]; 1 min) [Log10 CFU/mL] | Viable counts, Staphylococcus aureus time kill study ([9]; 5 min) [Log10 CFU/mL] | Viable counts, Staphylococcus aureus time kill study ([9]; time 0) [Log10 CFU/mL] | Viable counts, Escherichia coli time kill study ([4]; 0.5 min) [Log10 CFU/mL] | Viable counts, Escherichia coli time kill study ([4]; 1 min) [Log10 CFU/mL] | also measured
– | – | – | – | – | – | – | – | – | – | – | – | – | CCCCCCCCCCCCOC(=O)C(C)N(C)C (stereo not shown) [Nex-05, Dodecyl 2-(dimethylamino)propanoate hydrochloride] | <3.52 | – | – | – | – | – | – | pH (pH (Table 1); hydrochloride): 2.87; MIC ([1]; ATCC29213, read-out: MIC S. aureus, n = 1): 3130 µg/mL; MIC ([2]; ATCC25922, Table 19 summary of Example 33 and Example 35): 3130 µg/mL; MIC ([2]; ATCC25922, read-out: MIC E. coli, n = 1): 3130 µg/mL; MIC ([2]; ATCC25922, read-out: MIC E. coli, n = 2): 3130 µg/mL; MIC E. coli ([2]; n = 1, listed as Nex-88, hydrochloride): 3130 µg/mL; MIC ([3]; ATCC27853, Table 19 summary): 6250 µg/mL; MIC ([3]; ATCC27853, read-out: MIC P. aeruginosa, n = 1): 6250 µg/mL; MIC ([3]; ATCC27853, read-out: MIC P. aeruginosa, n = 2): 6250 µg/mL; Viable counts, Escherichia coli time kill study ([4]; 0.5 min, hydrochloride): <4.0 Log10 CFU/mL; Viable counts, Escherichia coli time kill study ([4]; 0.5 min, listed as Nex-88, hydrochloride): <4.0 Log10 CFU/mL; Viable counts, Escherichia coli time kill study [4, 11]: <3.70 Log10 CFU/mL; Viable counts, Escherichia coli time kill study ([4]; 5 min, listed as Nex-88, hydrochloride): <3.52 Log10 CFU/mL; Viable counts, Pseudomonas aeruginosa time kill study [5, 11]: <3.70 Log10 CFU/mL; MIC ([6]; ATCC90029, Table 19 summary): > 12500 µg/mL; MIC ([6]; ATCC90029, read-out: MIC Candida albicans, n = 1): > 12500 µg/mL; MIC ([6]; ATCC90029, read-out: MIC Candida albicans, n = 2): > 12500 µg/mL
> 12500 | > 12500 | > 12500 | 2.04 | 1560 | 1560 | 1560 | 46 | 3130 | 3130 | 6250 | 6250 | 6250 | CCCCCCCCCCCCOC(=O)C(C)NC(C)C.Cl (stereo not shown) [Nex-60, Dodecyl 2-(isopropylamino)propanoate hydrochloride] | <3.52 | 6.23 | 6.25 | 6.21 | 6.28 | <4.0 | 3.7 | melting point: 86 to 91 °C; MIC [2, 26]: 3130 µg/mL; Viable counts, Escherichia coli time kill study ([4]; 5 min): <3.52 Log10 CFU/mL; Viable counts, Escherichia coli time kill study ([4]; time 0): 5.88 Log10 CFU/mL; Viable counts, Pseudomonas aeruginosa time kill study ([5]; 0.5 min): 4.6 Log10 CFU/mL; Viable counts, Pseudomonas aeruginosa time kill study ([5]; 1 min): 3.7 Log10 CFU/mL; Viable counts, Pseudomonas aeruginosa time kill study ([5]; time 0): 5.58 Log10 CFU/mL; MIC [6, 23]: 12500 µg/mL; MIC [6, 24]: 12500 µg/mL; MIC [6, 25]: 12500 µg/mL
50 | 50 | 25 | 1.50 | 50 | 50 | 50 | 40 | 780 | 1560 | 6250 | 6250 | 6250 | CCCCCCCCCCCCOC(=O)C(C)NCCO.Cl (stereo not shown) [Nex-61, Dodecyl 2-((2-hydroxyethyl)amino)propanoate hydrochloride] | <3.52 | 6.15 | 6.07 | 5.54 | 6.38 | 5.54 | 5.61 | melting point: 134 to 139 °C; MIC [2, 26]: 780 µg/mL; Viable counts, Candida albicans time kill study ([10]; 0.5 min): 5.19 Log10 CFU/mL; Viable counts, Candida albicans time kill study ([10]; 1 min): 5.36 Log10 CFU/mL; Viable counts, Candida albicans time kill study ([10]; 5 min): 5.3 Log10 CFU/mL; Viable counts, Candida albicans time kill study ([10]; time 0): 5.23 Log10 CFU/mL; Viable counts, Escherichia coli time kill study ([4]; 5 min): 4.9 Log10 CFU/mL; Viable counts, Escherichia coli time kill study ([4]; time 0): 5.78 Log10 CFU/mL; Viable counts, Pseudomonas aeruginosa time kill study ([5]; 0.5 min): 4 Log10 CFU/mL; Viable counts, Pseudomonas aeruginosa time kill study ([5]; 1 min): <3.70 Log10 CFU/mL; Viable counts, Pseudomonas aeruginosa time kill study ([5]; time 0): 5.71 Log10 CFU/mL; MIC [6, 23]: 12.5 µg/mL; MIC [6, 24]: 12.5 µg/mL; MIC [6, 25]: 12.5 µg/mL
12.5 | 12.5 | 12.5 | 0.73 | 25 | 25 | 25 | 48 | 100 | 100 | 6250 | 6250 | 6250 | CCCCCCCCCCCCOC(=O)C(C)NCCN(CC)CC.Cl (stereo not shown) [Nex-62, Dodecyl 2-((2-(diethylamino)ethyl)amino)propanoate dihydrochloride] | <3.52 | 6.32 | 6.35 | 6.31 | 6.34 | 4.78 | 5.02 | MIC [2, 26]: 100 µg/mL; Viable counts, Candida albicans time kill study ([10]; 0.5 min): 5.37 Log10 CFU/mL; Viable counts, Candida albicans time kill study ([10]; 1 min): 5.18 Log10 CFU/mL; Viable counts, Candida albicans time kill study ([10]; 5 min): 5.16 Log10 CFU/mL; Viable counts, Candida albicans time kill study ([10]; time 0): 5.12 Log10 CFU/mL; Viable counts, Escherichia coli time kill study ([4]; 5 min): 3.82 Log10 CFU/mL; Viable counts, Escherichia coli time kill study ([4]; time 0): 4.82 Log10 CFU/mL; Viable counts, Pseudomonas aeruginosa time kill study ([5]; 0.5 min): 4 Log10 CFU/mL; Viable counts, Pseudomonas aeruginosa time kill study ([5]; 1 min): <3.70 Log10 CFU/mL; Viable counts, Pseudomonas aeruginosa time kill study ([5]; time 0): 5.52 Log10 CFU/mL; MIC [6, 23]: 6.25 µg/mL; MIC [6, 24]: 6.25 µg/mL; MIC [6, 25]: 6.25 µg/mL

SMILES | MIC [7, 12] [µg/mL] | MIC [7, 13] [µg/mL] | MIC [7, 14] [µg/mL] | pH (pH (Table 1)) | MIC [1, 15] [µg/mL] | MIC [1, 16] [µg/mL] | MIC [1, 17] [µg/mL] | Sol. [8] [%] | MIC [2, 18] [µg/mL] | MIC [2, 19] [µg/mL] | MIC [3, 20] [µg/mL] | MIC [3, 21] [µg/mL] | MIC [3, 22] [µg/mL] | Viable counts, Pseudomonas aeruginosa time kill study ([5]; 5 min) [Log10 CFU/mL] | Viable counts, Staphylococcus aureus time kill study ([9]; 0.5 min) [Log10 CFU/mL] | Viable counts, Staphylococcus aureus time kill study ([9]; 1 min) [Log10 CFU/mL] | Viable counts, Staphylococcus aureus time kill study ([9]; 5 min) [Log10 CFU/mL] | Viable counts, Staphylococcus aureus time kill study ([9]; time 0) [Log10 CFU/mL] | Viable counts, Escherichia coli time kill study ([4]; 0.5 min) [Log10 CFU/mL] | Viable counts, Escherichia coli time kill study ([4]; 1 min) [Log10 CFU/mL] | also measured
CCCCCCCCCCCCOC(=O)C(C)NC.Cl (stereo not shown) [Nex-59, Dodecyl 2-(methylamino)propanoate hydrochloride] | 50 | 50 | 50 | 2.17 | 50 | 50 | 50 | 33 | 50 | 50 | 3130 | 3130 | 3130 | <3.52 | 6.33 | 6.22 | 6.15 | 6.33 | 5.04 | 5.11 | melting point: 78 to 83 °C; Viable counts, Candida albicans time kill study ([10]; 0.5 min): 5.18 Log10 CFU/mL; Viable counts, Candida albicans time kill study ([10]; 1 min): 5.32 Log10 CFU/mL; Viable counts, Candida albicans time kill study ([10]; 5 min): 5.23 Log10 CFU/mL; Viable counts, Candida albicans time kill study ([10]; time 0): 5.3 Log10 CFU/mL; Viable counts, Escherichia coli time kill study ([4]; 5 min): 4.56 Log10 CFU/mL; Viable counts, Escherichia coli time kill study ([4]; time 0): 5.34 Log10 CFU/mL; Viable counts, Pseudomonas aeruginosa time kill study ([5]; 0.5 min): 5.26 Log10 CFU/mL; Viable counts, Pseudomonas aeruginosa time kill study ([5]; 1 min): 4.78 Log10 CFU/mL; Viable counts, Pseudomonas aeruginosa time kill study ([5]; time 0): 5.65 Log10 CFU/mL; MIC [6, 23]: 50 µg/mL; MIC [6, 24]: 25 µg/mL; MIC [6, 25]: 25 µg/mL
